Consider two compounds from patent US12077503B2, “Substituted cyclic amides and their use as herbicides” (FMC CORPORATION, priority 2015, dated 2024).

Assay type in all cases: in vivo
Experiment [1] relates to barnyardgrass (Echinochloa crus-galli). The experiment can be described thus: Test B flooded paddy test. The settings on record: Echinochloa crus-galli, 250 g ai/ha, Flood; 0 to 100 scale where 0 is no effect and 100 is complete control; read-out: Barnyardgrass plant response rating. In a few lines:
(§1)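 Visual ratings (0 none to 100 complete control) are relative to untreated plants, taken 13–15 d after treatment in a greenhouse. Test material went straight into floodwater standing 3 cm above the soil, kept constant, on plants at the 2-leaf stage.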

A further experiment concerns rice (Oryra sativa). Kind of experiment: Test B flooded paddy test. The settings on record: Oryza sativa, 250 g ai/ha, Flood; 0 to 100 scale where 0 is no effect and 100 is complete control; read-out: Rice plant response rating. In a few lines:
as §1

For experiment [2], the system named is sedge, umbrella (small-flower umbrella sedge, Cyperus difformis). The experiment can be described thus: Test B flooded paddy test. The conditions noted are these: Cyperus difformis, 250 g ai/ha, Flood; 0 to 100 scale where 0 is no effect and 100 is complete control; read-out: Sedge, Umbrella plant response rating. In a few lines:
as §1

Experiment [3] has as its system ducksalad (Heteranthera limosa). Kind of experiment: Test B flooded paddy test. The conditions noted are these: Heteranthera limosa, 250 g ai/ha, Flood; 0 to 100 scale where 0 is no effect and 100 is complete control; read-out: Ducksalad plant response rating. An outline of the steps: as §1
The subject of experiment [4] is barnyardgrass (Echinochloa crus-galli). Kind of experiment: Test A preemergence. The conditions noted are these: Echinochloa crus-galli, pre-emergence, 240 h, preemergence, 0 to 100 scale where 0 is no effect and 100 is complete control, read-out: Barnyardgrass plant response rating; for pest or weed control at 125 g/ha: 125 g ai/ha, approx. 10 d; for pest or weed control at 500 g/ha: 500 g ai/ha. An outline of the steps: (§2)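 Ratings of 0 (no effect) to 100 (complete control) come from visual comparison with untreated controls roughly 10 d after treatment. Test chemicals, formulated in a non-phytotoxic solvent mixture with surfactant, were applied either as a preemergence directed soil spray on seeded soil or postemergence to one- to two-leaf plants 2 to 10 cm tall.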

For experiment [5], the system named is ryegrass, Italian (Italian ryegrass, Lolium multiflorum). Kind of experiment: Test A preemergence. The settings on record: Lolium multiflorum, pre-emergence, 240 h, preemergence, 0 to 100 scale where 0 is no effect and 100 is complete control, read-out: Ryegrass, Italian plant response rating; for pest or weed control at 125 g/ha: 125 g ai/ha, approx. 10 d; for pest or weed control at 500 g/ha: 500 g ai/ha. In a few lines: as §2

Experiment [6] deals with pigweed (Amaranthus retroflexus). Kind of experiment: Test A preemergence. The conditions noted are these: Amaranthus retroflexus, pre-emergence, 240 h, preemergence, 0 to 100 scale where 0 is no effect and 100 is complete control, read-out: Pigweed plant response rating; for pest or weed control at 125 g/ha: 125 g ai/ha, approx. 10 d; for pest or weed control at 500 g/ha: 500 g ai/ha.

Experiment [7] concerns ragweed (common ragweed, Ambrosia elatior). The experiment can be described thus: Test A preemergence. The settings on record: Ambrosia artemisiifolia, pre-emergence, 240 h, preemergence, 0 to 100 scale where 0 is no effect and 100 is complete control, read-out: Ragweed plant response rating; for pest or weed control at 125 g/ha: 125 g ai/ha, approx. 10 d; for pest or weed control at 500 g/ha: 500 g ai/ha. An outline of the steps: as §2

Experiment [8] relates to giant foxtail (Setaria faberii). Kind of experiment: Test A preemergence. The settings on record: Setaria faberi, pre-emergence, 240 h, preemergence, 0 to 100 scale where 0 is no effect and 100 is complete control, read-out: Foxtail, Giant plant response rating; for pest or weed control at 125 g/ha: 125 g ai/ha, approx. 10 d; for pest or weed control at 500 g/ha: 500 g ai/ha. In a few lines: as §2

The subject of another experiment is Kochia (Kochia scoparia). The experiment can be described thus: Test A preemergence. The settings on record: Bassia scoparia, pre-emergence, 240 h, preemergence, 0 to 100 scale where 0 is no effect and 100 is complete control, read-out: Kochia plant response rating; for pest or weed control at 125 g/ha: 125 g ai/ha, approx. 10 d; for pest or weed control at 500 g/ha: 500 g ai/ha. In a few lines: as §2

The subject of experiment [9] is barnyardgrass (Echinochloa crus-galli). The experiment can be described thus: Test A postemergence. The conditions noted are these: Echinochloa crus-galli, post-emergence, 240 h, postemergence, read-out: Barnyardgrass plant response rating; for pest or weed control at 125 g/ha: 125 g ai/ha, visual injury on 0 to 100 scale (0 no effect, 100 complete control), approx. 10 d; for pest or weed control at 500 g/ha: 500 g ai/ha, 0 to 100 scale, 0 is no effect, 100 is complete control. In a few lines:
as §2

In experiment [10] the test system is ragweed (common ragweed, Ambrosia elatior). Kind of experiment: Test A postemergence. The settings on record: Ambrosia artemisiifolia, post-emergence, 240 h, postemergence; for pest or weed control at 125 g/ha: 125 g ai/ha; for pest or weed control at 500 g/ha: 500 g ai/ha, 0 to 100 scale, 0 is no effect, 100 is complete control. In a few lines: as §2
Another experiment concerns corn (Zea mays). The experiment can be described thus: Test A postemergence. The settings on record: Zea mays, post-emergence, 240 h, postemergence, read-out: Corn plant response rating; for plant injury at 125 g/ha: 125 g ai/ha, visual injury on 0 to 100 scale (0 no effect, 100 complete control), approx. 10 d; for plant injury at 500 g/ha: 500 g ai/ha, 0 to 100 scale, 0 is no effect, 100 is complete control. An outline of the steps: as §2

The subject of experiment [11] is Galium (catchweed bedstraw, Galium aparine). Kind of experiment: Test A postemergence. The conditions noted are these: Galium, post-emergence, 240 h, postemergence, read-out: Galium plant response rating; for pest or weed control at 125 g/ha: 125 g ai/ha, visual injury on 0 to 100 scale (0 no effect, 100 complete control), approx. 10 d; for pest or weed control at 500 g/ha: 500 g ai/ha, 0 to 100 scale, 0 is no effect, 100 is complete control. In a few lines:
as §2

[12] abbreviates: read-out: Ragweed plant response rating.

With `O=C1NC[C@H](c2ccc(F)c(OC(F)(F)C(F)F)c2)[C@H]1C(=O)Nc1cccc(F)c1F` [Compound 1131], the pest or weed control at 250 g/ha in [1] is 60%; with rice (Oryra sativa), 30%; in [2] it was 0%; in [3], 70%. Besides, the pest or weed control at 125 g/ha in experiment [4] stood at 90%; in [5], 0%; in [6], 80%; in experiment [7] it was 60%; in experiment [8], 90%; in the experiment with Kochia (Kochia scoparia), 100%. Also, the pest or weed control at 125 g/ha in [9] worked out at 70%; in experiment [10] (visual injury on 0 to 100 scale (0 no effect, 100 complete control), approx. 10 d, read-out: Ragweed plant response rating), 50%; in experiment [11], 60%. Further, the pest or weed control at 500 g/ha in experiment [4] worked out at 90%; in experiment [5] it was 70%; in [6], 90%; in [7], 80%; in experiment [8] it was 90%; in the experiment on Kochia (Kochia scoparia) it was 90%. Further, the pest or weed control at 500 g/ha was found to be 90% in experiment [9], 80% in experiment [10] (setting [12]) and 60% in [11]. In addition, the plant injury at 125 g/ha with corn (Zea mays) stood at 70%. Besides, the plant injury at 500 g/ha in the experiment on corn (Zea mays) came to 80%.
As to `CN1C[C@H](c2ccc(F)c(F)c2)[C@@H](C(=S)Nc2ccccc2F)C1=O` (racemic) [Compound 1153], the pest or weed control at 250 g/ha came out at 30% in [1], 0% in the experiment with rice (Oryra sativa), 0% in [2] and 70% in experiment [3]. Further, the pest or weed control at 125 g/ha in [4] was 80%; in experiment [5], 30%; in [6], 0%; in [7] it was 0%; in experiment [8] it was 90%; in the experiment with Kochia (Kochia scoparia) it was 60%. The pest or weed control at 125 g/ha came to 90% in [9]; 0% in experiment [10] (visual injury vs untreated controls after approx. 10 d, 0 = no effect, 100 = complete control, read-out: Ragweed plant response rating (0 to 100 scale)); 30% in experiment [11]. Further, the pest or weed control at 500 g/ha in [4] is 90%; in [5] it was 50%; in experiment [6] it was 0%; in experiment [7], 0%; in experiment [8], 90%; in the experiment on Kochia (Kochia scoparia), 70%. The pest or weed control at 500 g/ha in experiment [9] is 90%; in experiment [10] (setting [12]), 0%; in experiment [11], 40%. In addition, the plant injury at 125 g/ha in the experiment with corn (Zea mays) was determined as 0%. Also, in the experiment with corn (Zea mays), the plant injury at 500 g/ha worked out at 0%.
